This note sets out measurements from ChEMBL document CHEMBL4823249, “Discovery of a Pyrimidinedione Derivative as a Potent and Orally Bioavailable Axl Inhibitor” (J Med Chem, 2021).

Each structure is given as a SMILES string. The source made the active and inactive calls. The calls are words filed in the database; no cut-off is given here. Bounds are passed on as bounds.

Data set [1] addresses T1, Tyrosine-protein kinase receptor UFO (Homo sapiens, UniProt P30530).
T1 sequence (P30530 whole entry): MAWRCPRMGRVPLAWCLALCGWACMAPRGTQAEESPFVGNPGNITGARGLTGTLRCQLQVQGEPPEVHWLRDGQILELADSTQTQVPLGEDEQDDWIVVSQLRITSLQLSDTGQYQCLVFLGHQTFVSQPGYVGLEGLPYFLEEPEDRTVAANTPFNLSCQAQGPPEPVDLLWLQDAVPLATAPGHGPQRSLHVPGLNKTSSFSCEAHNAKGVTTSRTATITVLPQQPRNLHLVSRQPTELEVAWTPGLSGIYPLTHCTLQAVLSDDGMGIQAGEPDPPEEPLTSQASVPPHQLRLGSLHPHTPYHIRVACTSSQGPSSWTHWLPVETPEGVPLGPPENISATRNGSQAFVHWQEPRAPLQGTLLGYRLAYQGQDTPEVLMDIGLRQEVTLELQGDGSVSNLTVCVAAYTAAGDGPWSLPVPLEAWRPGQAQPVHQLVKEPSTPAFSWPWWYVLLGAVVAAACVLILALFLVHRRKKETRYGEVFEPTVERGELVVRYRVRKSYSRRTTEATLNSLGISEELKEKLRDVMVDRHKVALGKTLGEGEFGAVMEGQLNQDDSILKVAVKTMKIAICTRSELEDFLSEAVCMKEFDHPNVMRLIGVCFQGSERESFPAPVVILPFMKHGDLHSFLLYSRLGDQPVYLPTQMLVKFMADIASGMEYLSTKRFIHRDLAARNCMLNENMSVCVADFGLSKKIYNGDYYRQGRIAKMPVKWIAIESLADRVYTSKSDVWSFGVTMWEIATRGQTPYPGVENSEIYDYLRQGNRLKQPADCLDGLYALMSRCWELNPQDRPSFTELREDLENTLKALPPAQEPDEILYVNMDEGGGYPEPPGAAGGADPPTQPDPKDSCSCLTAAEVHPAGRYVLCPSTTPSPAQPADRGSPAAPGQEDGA
The data set can be described thus: Inhibition of AXL (unknown origin) using poly [Glu, Tyr] 4:1 as substrate incubated for 60 mins in presence of ATP by ELISA. For orientation: In an ELISA, binding on a coated surface is turned into a signal by an enzyme label.

Data set [2] addresses Cyclin-dependent kinase 1/cyclin B1 (Homo sapiens, UniProt P06493). The data set can be described thus: Inhibition of recombinant full length human CDK1/CyclinB using Histone H1 as substrate incubated for 40 mins in presence of [gamma-33ATP] by scintillation counting based radiometry assay. It is filed as protein-complex assay.
For data set [3], the system named is SNU-449. Nature of the data set: Inhibition of Gas6-stimulated cell invasion in human SNU-449 cells at […] after 24 hrs by crystal violet staining based microscopic analysis. It is filed as functional. The conditions noted are these: dose lower 5.0 µM.
Data set [4] relates to U-87 MG. Nature of the data set: Antitumor activity against human U-87MG cells xenografted in po dosed BALB/c nude mouse assessed as tumor growth inhibition administered once daily for 14 days by caliper method. It is filed as functional, organism-based. As to conditions: U-87MG ATCC, dose 5-100 mg/kg, time 14.0 day.
Data set [5] has as its system SNU-449. Nature of the data set: Antiproliferative activity against human SNU-449 cells at 5 to 125 uM incubated for 72 hrs by SRB or CCK8 assay. The conditions noted are these: dose 5-125 µM. The format is functional, cell-based.
Another data set concerns RT-112. Nature of the data set: Antiproliferative activity against human RT-112 cells incubated for 72 hrs by SRB or CCK8 assay. It is filed as functional, cell-based. The conditions noted are these: RT-112, 72 h. For orientation: Tetrazolium dyes change colour on reduction, which living cells bring about.
Data set [6] in a line: Toxicity in BALB/c nude mouse assessed as reduction in body weight at 100 mg/kg, po administered once daily for 14 days. As to conditions: in vivo, 336 h, time 14 day. It is filed as organism-based.
Data set [7] concerns the target PI3-kinase p110-delta/p85-alpha (Homo sapiens, UniProt O00329). The data set can be described thus: Inhibition of recombinant human full length PI3K p110delta/p85a using phosphatidylinositol-4, 5-bisphosphate as substrate incubated for 40 mins in presence of [gamma33P]ATP by scintillation counting based radiometry assay. The format is protein-complex assay.
The next data set addresses CDK2/Cyclin A2 (Homo sapiens, UniProt P24941). Nature of the data set: Inhibition of full length human recombinant CDK2/Cyclin A using histone H1 as substrate incubated for 40 mins in presence of [gamma-33ATP] by radiometric scintillation counting analysis. The format is protein-complex assay.
The next data set has as its system HCC827. Nature of the data set: Antiproliferative activity against human HCC827 cells incubated for 72 hrs by SRB or CCK8 assay. It is filed as functional, cell-based. As to conditions: HCC827, 72 h.
In data set [8] the test system is U-87 MG. Nature of the data set: Antitumor activity against human U-87MG cells xenografted in BALB/c nude mouse assessed as tumor growth inhibition at 25 mg/kg, po administered once daily for 14 days by caliper method. As to conditions: 336 h, time 14 day, read-out: TGI. It is filed as functional, U-87MG ATCC. (In xenograft studies the graft and the host belong to different species.)

For data set [9], the target named is Calcium/calmodulin-dependent protein kinase type 1 (Homo sapiens, UniProt Q14012). Nature of the data set: Inhibition of recombinant human CaMK1 (2 to end residues) using […] as substrate incubated for 40 mins in presence of [gamma-33ATP] by scintillation counting based radiometry assay.
Calcium/calmodulin-dependent protein kinase type 1, sequence (Q14012 whole entry): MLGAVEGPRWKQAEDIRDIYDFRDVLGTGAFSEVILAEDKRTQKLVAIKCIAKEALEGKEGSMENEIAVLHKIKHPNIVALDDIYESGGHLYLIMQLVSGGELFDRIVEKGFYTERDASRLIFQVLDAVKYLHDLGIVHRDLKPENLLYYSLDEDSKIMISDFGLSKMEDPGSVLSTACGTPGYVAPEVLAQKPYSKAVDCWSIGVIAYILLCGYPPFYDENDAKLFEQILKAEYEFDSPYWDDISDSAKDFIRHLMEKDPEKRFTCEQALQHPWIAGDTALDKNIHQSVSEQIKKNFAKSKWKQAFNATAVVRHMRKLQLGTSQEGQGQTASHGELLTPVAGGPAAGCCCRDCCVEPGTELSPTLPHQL
In a further data set the test system is BT-474. The data set can be described thus: Antiproliferative activity against human BT-474 cells incubated for 72 hrs by SRB or CCK8 assay. It is filed as functional, cell-based. As to conditions: BT-474, 72 h.
The target in data set [10] is Hepatocyte growth factor receptor (Homo sapiens, UniProt P08581). The data set can be described thus: Inhibition of MET signaling in human MKN45 cells assessed as reduction in phosphorylation of MET after 2 hrs by Western blotting analysis. It is filed as cell-based. The conditions noted are these: MKN-45, dose 10-100 nM.
Hepatocyte growth factor receptor, sequence (P08581 whole entry): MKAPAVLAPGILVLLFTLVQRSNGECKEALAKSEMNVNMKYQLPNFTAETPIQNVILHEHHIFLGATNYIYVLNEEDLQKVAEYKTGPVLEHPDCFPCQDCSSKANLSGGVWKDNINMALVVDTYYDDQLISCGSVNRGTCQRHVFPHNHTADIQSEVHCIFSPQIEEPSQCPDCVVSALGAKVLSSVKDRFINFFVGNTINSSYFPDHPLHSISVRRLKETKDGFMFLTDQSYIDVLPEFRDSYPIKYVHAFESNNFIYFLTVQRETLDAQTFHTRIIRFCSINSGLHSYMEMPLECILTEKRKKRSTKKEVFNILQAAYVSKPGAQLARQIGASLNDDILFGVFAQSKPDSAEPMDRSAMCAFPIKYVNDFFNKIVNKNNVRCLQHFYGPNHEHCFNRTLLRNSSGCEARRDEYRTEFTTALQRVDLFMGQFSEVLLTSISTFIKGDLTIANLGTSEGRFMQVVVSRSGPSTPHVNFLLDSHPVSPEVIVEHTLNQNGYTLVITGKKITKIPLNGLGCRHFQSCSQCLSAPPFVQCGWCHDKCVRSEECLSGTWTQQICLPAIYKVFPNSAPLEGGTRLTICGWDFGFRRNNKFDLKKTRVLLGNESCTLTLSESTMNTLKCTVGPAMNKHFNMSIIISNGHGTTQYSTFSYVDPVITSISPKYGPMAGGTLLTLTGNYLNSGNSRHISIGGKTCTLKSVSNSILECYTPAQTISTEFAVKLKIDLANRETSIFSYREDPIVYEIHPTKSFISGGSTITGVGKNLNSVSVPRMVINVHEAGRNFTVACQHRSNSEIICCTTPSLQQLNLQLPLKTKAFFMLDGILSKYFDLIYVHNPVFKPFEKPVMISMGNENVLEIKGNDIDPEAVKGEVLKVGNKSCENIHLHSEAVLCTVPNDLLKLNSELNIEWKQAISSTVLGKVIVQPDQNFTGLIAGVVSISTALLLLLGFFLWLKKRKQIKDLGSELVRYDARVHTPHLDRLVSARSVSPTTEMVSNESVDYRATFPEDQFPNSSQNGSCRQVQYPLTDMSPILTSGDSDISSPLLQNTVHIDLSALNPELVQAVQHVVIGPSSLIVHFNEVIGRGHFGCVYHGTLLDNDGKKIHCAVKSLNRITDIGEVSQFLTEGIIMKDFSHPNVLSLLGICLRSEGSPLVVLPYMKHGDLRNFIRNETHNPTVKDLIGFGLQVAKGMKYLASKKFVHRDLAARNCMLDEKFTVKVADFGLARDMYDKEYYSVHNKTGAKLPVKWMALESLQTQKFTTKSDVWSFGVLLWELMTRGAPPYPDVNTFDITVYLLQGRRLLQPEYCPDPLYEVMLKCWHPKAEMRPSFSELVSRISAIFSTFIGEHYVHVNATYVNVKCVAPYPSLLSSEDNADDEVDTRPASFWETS
Data set [11] in a line: Half life in ICR mouse at 1 mg/kg, iv measured upto 24 hrs by LC-MS analysis. The conditions noted are these: in vivo. The format is ADME, organism-based.
Data set [12] addresses Receptor tyrosine-protein kinase erbB-4 (Homo sapiens, UniProt Q15303). The data set can be described thus: Inhibition of recombinant human ERBB4 (706 to 991 residues) using poly(Glu, Tyr) 4:1 as substrate incubated for 40 mins in presence of [gamma-33ATP] by scintillation counting based radiometry assay.
Data set [13] can be described thus: AUC(0 to infinity) in ICR mouse at 3 mg/kg, po measured upto 24 hrs by LC-MS analysis. The format is ADME, organism-based. As to conditions: in vivo. Also noted: route oral, dose 3 mg/kg, time <=24.

Receptor tyrosine-protein kinase erbB-4, sequence (Q15303 whole entry, the tested form may be a part): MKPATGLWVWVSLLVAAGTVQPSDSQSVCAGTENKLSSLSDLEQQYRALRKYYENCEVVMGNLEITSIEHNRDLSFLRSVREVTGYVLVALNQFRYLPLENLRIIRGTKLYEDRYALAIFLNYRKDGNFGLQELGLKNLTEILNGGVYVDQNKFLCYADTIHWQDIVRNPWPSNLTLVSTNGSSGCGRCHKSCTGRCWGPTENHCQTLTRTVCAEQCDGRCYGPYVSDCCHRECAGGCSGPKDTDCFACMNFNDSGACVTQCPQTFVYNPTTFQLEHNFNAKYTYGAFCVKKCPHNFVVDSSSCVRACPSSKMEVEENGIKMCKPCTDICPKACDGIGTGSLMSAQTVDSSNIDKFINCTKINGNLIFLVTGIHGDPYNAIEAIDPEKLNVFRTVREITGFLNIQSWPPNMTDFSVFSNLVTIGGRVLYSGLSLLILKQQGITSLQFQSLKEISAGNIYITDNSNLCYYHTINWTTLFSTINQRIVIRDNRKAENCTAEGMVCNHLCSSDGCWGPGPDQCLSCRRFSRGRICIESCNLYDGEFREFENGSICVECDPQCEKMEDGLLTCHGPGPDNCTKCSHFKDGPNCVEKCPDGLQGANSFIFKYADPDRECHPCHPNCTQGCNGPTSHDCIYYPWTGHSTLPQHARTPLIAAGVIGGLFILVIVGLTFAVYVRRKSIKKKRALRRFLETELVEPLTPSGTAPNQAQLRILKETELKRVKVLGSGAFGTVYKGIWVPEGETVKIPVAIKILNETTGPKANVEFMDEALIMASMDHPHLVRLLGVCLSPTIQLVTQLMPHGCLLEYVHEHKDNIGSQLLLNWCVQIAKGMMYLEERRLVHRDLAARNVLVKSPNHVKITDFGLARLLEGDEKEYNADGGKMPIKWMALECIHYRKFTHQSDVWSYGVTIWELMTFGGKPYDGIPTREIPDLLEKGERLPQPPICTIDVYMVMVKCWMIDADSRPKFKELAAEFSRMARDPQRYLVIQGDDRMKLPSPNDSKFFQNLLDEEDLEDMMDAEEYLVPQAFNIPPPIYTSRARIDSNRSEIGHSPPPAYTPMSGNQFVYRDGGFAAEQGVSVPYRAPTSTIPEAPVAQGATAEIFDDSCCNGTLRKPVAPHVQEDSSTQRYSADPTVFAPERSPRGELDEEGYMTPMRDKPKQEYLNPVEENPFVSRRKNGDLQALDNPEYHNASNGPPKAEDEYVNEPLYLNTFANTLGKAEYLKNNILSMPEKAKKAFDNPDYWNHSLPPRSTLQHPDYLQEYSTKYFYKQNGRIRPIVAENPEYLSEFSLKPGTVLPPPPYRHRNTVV
PI3-kinase p110-delta/p85-alpha, sequence (P27986 whole entry): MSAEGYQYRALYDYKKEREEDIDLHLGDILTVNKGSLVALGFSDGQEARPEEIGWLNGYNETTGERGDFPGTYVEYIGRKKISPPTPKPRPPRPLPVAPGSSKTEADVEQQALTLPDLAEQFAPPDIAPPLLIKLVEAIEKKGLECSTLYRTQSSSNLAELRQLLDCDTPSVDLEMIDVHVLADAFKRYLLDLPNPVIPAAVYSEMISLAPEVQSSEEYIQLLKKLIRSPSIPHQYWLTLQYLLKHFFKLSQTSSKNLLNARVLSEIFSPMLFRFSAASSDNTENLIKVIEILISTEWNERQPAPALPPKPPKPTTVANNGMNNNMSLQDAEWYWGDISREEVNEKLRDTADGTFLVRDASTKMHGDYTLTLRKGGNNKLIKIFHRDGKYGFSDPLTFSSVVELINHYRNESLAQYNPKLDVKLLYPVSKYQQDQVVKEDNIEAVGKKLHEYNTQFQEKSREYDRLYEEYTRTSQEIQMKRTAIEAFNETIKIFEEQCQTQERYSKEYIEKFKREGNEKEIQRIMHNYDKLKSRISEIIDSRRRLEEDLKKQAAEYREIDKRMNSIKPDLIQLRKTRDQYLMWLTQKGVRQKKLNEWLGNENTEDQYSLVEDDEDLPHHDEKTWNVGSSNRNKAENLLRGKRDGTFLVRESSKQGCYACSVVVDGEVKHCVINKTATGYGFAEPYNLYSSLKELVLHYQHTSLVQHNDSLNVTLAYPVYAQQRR
PI3-kinase p110-delta/p85-alpha, sequence (O00329 whole entry): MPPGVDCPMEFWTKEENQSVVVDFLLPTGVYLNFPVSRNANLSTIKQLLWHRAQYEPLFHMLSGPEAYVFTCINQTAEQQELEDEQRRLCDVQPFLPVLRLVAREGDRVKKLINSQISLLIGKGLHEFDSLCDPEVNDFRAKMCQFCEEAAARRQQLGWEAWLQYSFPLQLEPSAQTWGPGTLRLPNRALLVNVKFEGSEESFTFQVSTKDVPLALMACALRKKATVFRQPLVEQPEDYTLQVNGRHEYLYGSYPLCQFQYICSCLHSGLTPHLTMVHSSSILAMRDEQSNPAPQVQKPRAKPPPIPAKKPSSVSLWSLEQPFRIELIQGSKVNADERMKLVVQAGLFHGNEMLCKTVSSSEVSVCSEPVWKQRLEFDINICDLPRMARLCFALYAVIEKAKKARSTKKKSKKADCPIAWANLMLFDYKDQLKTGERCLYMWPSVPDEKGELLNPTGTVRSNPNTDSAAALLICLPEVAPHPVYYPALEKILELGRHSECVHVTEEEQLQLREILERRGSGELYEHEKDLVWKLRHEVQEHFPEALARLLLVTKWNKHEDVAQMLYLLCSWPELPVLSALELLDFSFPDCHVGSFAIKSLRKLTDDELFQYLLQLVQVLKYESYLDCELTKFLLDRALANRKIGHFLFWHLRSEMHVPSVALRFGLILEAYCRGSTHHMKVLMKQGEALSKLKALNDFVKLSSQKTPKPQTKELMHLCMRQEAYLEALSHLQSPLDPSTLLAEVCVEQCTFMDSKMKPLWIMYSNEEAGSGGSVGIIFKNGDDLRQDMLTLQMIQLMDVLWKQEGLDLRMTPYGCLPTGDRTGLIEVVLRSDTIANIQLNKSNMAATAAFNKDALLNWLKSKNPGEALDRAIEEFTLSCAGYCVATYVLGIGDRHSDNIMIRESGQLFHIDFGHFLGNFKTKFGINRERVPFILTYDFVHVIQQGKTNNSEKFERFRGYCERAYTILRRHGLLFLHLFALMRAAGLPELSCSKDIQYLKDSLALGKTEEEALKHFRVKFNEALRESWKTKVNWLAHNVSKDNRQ

A word on the IC50: it is the concentration that gives 50% inhibition. One may read the half-life as the time in which the quantity being followed falls by half. Read a low half-life as fast loss. For orientation: AUC(0-inf) means total exposure, with the tail of the curve extrapolated. Lower therefore signals low exposure. For `CC(C)n1cc(C(=O)Nc2ccc(Oc3ccnc(NC(=O)C4CC4)c3)c(F)c2)c(=O)n(-c2ccc(F)cc2)c1=O`, the IC50 in [1] was 0.9 nM; in data set [2], > 1000 nM; with RT-112 it was > 10000 nM; in [7], > 1000 nM; on CDK2/Cyclin A2 it was > 1000 nM; with HCC827, > 10000 nM. Moreover, the IC50 in data set [9] is > 1000 nM; with BT-474, > 10000 nM; in [12], > 1000 nM. In the data set on SNU-449 [3], the inhibition entry was “Active”. For the same molecule, the Activity result in the data set on U-87 MG [4] was “Dose-Dependent Effect”; in [6], “Non-Toxic”. In the data set with SNU-449 [5], the result was inactive. For the same molecule, in the data set on U-87 MG [8], the inhibition in vivo at 25 mg/kg came out at 89.8%. The inhibition result in data set [10] was “Dose-Dependent Effect”. The molecule further showed a half-life in data set [11] of 5.57 h. The AUC(0-inf) in [13] was determined as 25100 ng·h/mL.
